Assay results published in BindingDB's records for doi:10.1021/jm061268p (University of Arizona, 2007).

These compounds were tested against T1, Cholecystokinin receptor type A (Homo sapiens, UniProt P32238) (assay: Displacement of [125I]CCK8-SO3 from human CCK1 receptor expressed in HEK293 cells).
T1 sequence (P32238 whole entry): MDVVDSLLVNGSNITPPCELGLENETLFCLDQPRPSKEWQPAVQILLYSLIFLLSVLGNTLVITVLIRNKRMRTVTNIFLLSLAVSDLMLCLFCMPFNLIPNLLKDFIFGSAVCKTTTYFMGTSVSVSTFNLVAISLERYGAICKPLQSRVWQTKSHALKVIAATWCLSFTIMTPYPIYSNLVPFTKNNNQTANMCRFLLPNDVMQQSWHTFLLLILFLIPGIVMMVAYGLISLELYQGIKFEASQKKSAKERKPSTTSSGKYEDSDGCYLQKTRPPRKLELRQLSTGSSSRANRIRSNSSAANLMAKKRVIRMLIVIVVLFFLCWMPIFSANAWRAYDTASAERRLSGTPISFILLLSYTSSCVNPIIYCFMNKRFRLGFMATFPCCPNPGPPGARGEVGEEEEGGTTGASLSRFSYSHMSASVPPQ

SMILES | IC50 [nM]
CCCC[C@H](NC(=O)[C@H](CC(=O)O)NC(=O)[C@@H](N)Cc1ccccc1)C(=O)N[C@H](Cc1c[nH]c2ccccc12)C(=O)NNC(=O)[C@H](Cc1ccccc1)NC(=O)CNC(=O)[C@@H](C)NC(=O)[C@@H](N)Cc1ccc(O)cc1 [H-Tyr-D-Ala-Gly-Phe-NH-NH-D-Trp-Nle-Asp-Phe-H] | 5.15
CCCC[C@@H](NC(=O)[C@H](Cc1c[nH]c2ccccc12)NC(=O)OC(C)(C)C)C(=O)N[C@H](CC(=O)O)C(=O)N[C@H](Cc1ccccc1)C(=O)NNC(=O)[C@H](Cc1ccccc1)NC(=O)CNC(=O)[C@@H](C)NC(=O)[C@@H](N)Cc1ccc(O)cc1 [H-Tyr-D-Ala-Gly-Phe-NH-NH-D-Phe-D-Asp-D-Nle-Trp-Boc] | 5.05
CCCC[C@@H](NC(=O)[C@@H](CC(=O)O)NC(=O)[C@H](N)Cc1ccccc1)C(=O)N[C@@H](Cc1c[nH]c2ccccc12)C(=O)NNC(=O)[C@H](Cc1ccccc1)NC(=O)CNC(=O)[C@@H](C)NC(=O)[C@@H](N)Cc1ccc(O)cc1 [H-Tyr-D-Ala-Gly-Phe-NH-NH-Trp-D-Nle-D-Asp-D-Phe-H] | 5.72
